Legend:
[1] = target: T1, NS3/NS4A-2 (full-length HCV NS3 protease complexed with NS4A-2) (Hepatitis C virus genotype 1a, UniProt P27958); test: NS3 inhibition assay (NS3-NS4 protease assay); format: biochemical; conditions: recombinant full-length NS3/NS4A-2, RETS1 substrate, kinetic fluorescence read; read-out: NS3-NS4 IC50
T1 construct: Recombinant E. coli or Baculovirus full-length NS3; host or cells: E. coli or baculovirus (insect cells)
Description: Recombinant E. coli or Baculovirus full-length NS3 was diluted to 3.33 μM with assay buffer and transferred material to an eppendorf tube and place in water bath in 4° C. refrigerator. The appropriate amount of NS4A-2 to 8.3 mM in assay buffer was added to equal the volume of NS3 in step 2.1.1 (conversion factor −3.8 mg/272 μL assay buffer). The material was transferred to an eppendorf tube and place in water bath in 4° C. refrigerator.
After equilibration to 4° C., equal volumes of NS3 and NS4A-2 solutions were combined in an eppendorf tube, mix gently with a manual pipettor, and incubate mixture for 15 minutes in the 4° C. water bath. Final concentrations in the mixture are 1.67 μM NS3, 4.15 mM NS4A-2 (2485-fold molar excess NS4A-2).
After 15 minutes at 4° C., the NS3/NS4A-2 eppendorf tube was removed and place it in a room temperature water bath for 10 minutes. NS3/NS4A-2 was aliquoted at appropriate volumes and store at −80° C. (E. coli NS3 run at 2 nM in assay, aliquot at 25 μL. BV NS3 run at 3 nM in assay, aliquot at 30 μL).
Sample compounds were dissolved to 10 mM in DMSO then diluted to 2.5 mM (1:4) in DMSO. Typically, compounds were added to an assay plate at 2.5 mM concentration, yielding upon dilution a starting concentration of 50 microM in the assay inhibition curve. Compounds were serial diluted in assay buffer to provide test solutions at lower concentrations.
The E. coli. NS3/NS4A-2 was diluted to 4 nM NS3 (1:417.5 of 1.67 μM stock−18 μL1.67 μM stock+7497 μL assay buffer). The BV NS3/NS4A-2 was diluted to 6 nM NS3 (1:278.3 of 1.67 μM stock−24 μL1.67 μM stock+6655 μL assay buffer). Using the manual multichannel pipettor, careful not to introduce bubbles into the plate, add 50 μL assay buffer to wells A01-H01 of a black Costar 96-well polypropylene storage plate.
Using the manual multichannel pipettor, careful not to introduce bubbles into the plate, add 50 μL of diluted NS3/NS4A-2 from step 2.2.6 to wells A02-H12 of plate in step 2.2.7. Using the manual multichannel pipettor, careful not to introduce bubbles into the plate, transfer 25 μL of the wells in drug dilution plate in step 2.2.5 to corresponding wells in assay plate in step 2.2.8. Change tips on multichannel pipettor for each row of compounds transferred. Using the manual multichannel pipettor, careful not to introduce bubbles into the plate, mix the wells from the assay plate in step 2.2.9 by aspirating and dispensing 35 μL of the 75 μL in each well five times. Change tips on multichannel pipettor for each row of wells mixed. Cover plate with a polystyrene plate lid and pre-incubate the plate from step 2.2.10 containing NS3 protease and sample compounds 10 minutes at room temperature. While plate from step 2.2.11 is pre-incubating, dilute RETS1 substrate in a 15 mL polypropylene centrifuge tube. Dilute RETS1 substrate to 8 μM (1:80.75 of 646 μM stock−65 μL 646 μM stock+5184 μL assay buffer).
After the plate in step is done pre-incubating, and using the manual multichannel, add 25 μL of substrate to all wells on the plate. Quickly mix the plate as in step 2.2.10, mixing 65 μL of the 100 μL in the wells.
Read the plate in kinetic mode on the Molecular Devices SpectraMax Gemini XS plate reader. Reader settings: Read time: 30 minutes, Interval: 36 seconds, Reads: 51, Excitation λ: 335 nm, Emission λ: 495 nm, cutoff: 475 nm, Automix: off, Calibrate: once, PMT: high, Reads/well: 6, Vmax pts: 21 or 28/51 depending on length of linearity of reaction
IC50s are determined using a four parameter curve fit equation, and converted to Ki's using the following Km's: • Full-length E. coli NS3−2.03 μM • Full-length BV NS3−1.74 μM • where Ki=IC50/(1+[S]/Km)) • Quantitation by ELISA of the Selectable Marker Protein, Neomycin Phosphotransferase II (NPTII) in the HCV Sub-Genomic Replicon, GS4.3

[2] = tested on: HCV sub-genomic replicon (1377/NS3-3') in HuH-7 hepatoma cells (GS4.3); test: Quantitation by ELISA of NPTII in the HCV sub-genomic replicon, GS4.3; format: cell-based, hepatitis C virus (HCV); conditions: Hepatitis C virus, Huh-7; GS4.3 cells, 72 h incubation, NPTII ELISA; read-out: Replicon EC50
Description: The HCV sub-genomic replicon (1377/NS3-3′, accession No. AJ242652), stably maintained in HuH-7 hepatoma cells, was created by Lohmann et al. Science 285: 110-113 (1999). The replicon-containing cell culture, designated GS4.3, was obtained from Dr. Christoph Seeger of the Institute for Cancer Research, Fox Chase Cancer Center, Philadelphia, Pa.
GS4.3 cells were maintained at 37° C., 5% CO2, in DMEM (Gibco 11965-092) supplemented with L-glutamine 200 mM (100×) (Gibco25030-081), non-essential amino acids (NEAA) (Biowhittaker 13-114E), heat-inactivated (HI) Fetal Bovine Serum (FBS) (Hyclone SH3007.03) and 750 μg/mL geneticin (G418)(Gibco 10131-035). Cells were sub-divided 1:3 or 4 every 2-3 days.
24 h prior to the assay, GS4.3 cells were collected, counted, and plated in 96-well plates (Costar 3585) at 7500 cells/well in 100 μL standard maintenance medium (above) and incubated in the conditions above. To initiate the assay, culture medium was removed, cells were washed once with PBS (Gibco 10010-023) and 90 μl Assay Medium (DMEM, L-glutamine, NEAA, 10% HI FBS, no G418) was added. Inhibitors were made as a 10× stock in Assay Medium, (3-fold dilutions from 10 μM to 56 pM final concentration, final DMSO concentration 1%), 10 μL were added to duplicate wells, plates were rocked to mix, and incubated as above for 72 h.
An NPTII Elisa kit was obtained from AGDIA, Inc. (Compound direct ELISA test system for Neomycin Phosphotransferase II, PSP 73000/4800). Manufacturer's instructions were followed, with some modifications. 10×PEB-1 lysis buffer was made up to include 500 μM PMSF (Sigma P7626, 50 mM stock in isopropanol). After 72 h incubation, cells were washed once with PBS and 150 μL PEB-1 with PMSF was added per well. Plates were agitated vigorously for 15 minutes, room temperature, then frozen at −70° C. Plates were thawed, lysates were mixed thoroughly, and 100 μl were applied to an NPTII Elisa plate. A standard curve was made. Lysate from DMSO-treated control cells was pooled, serially diluted with PEB-1 with PMSF, and applied to duplicate wells of the ELISA plate, in a range of initial lysate amount of 150 μL-2.5 μL. In addition, 100 μL buffer alone was applied in duplicate as a blank. Plates were sealed and gently agitated at room temperature for 2 h. Following capture incubation, the plates were washed 5×300 μL with PBS-T (0.5% Tween-20, PBS-T was supplied in the ELISA kit). For detection, a 1× dilution of enzyme conjugate diluent MRS-2 (5×) was made in PBS-T, into which 1:100 dilutions of enzyme conjugates A and B were added, as per instructions. Plates were resealed, and incubated with agitation, covered, room temperature, for 2 h. The washing was then repeated and 100 μL of room temperature TMB substrate was added. After approximately 30 minutes incubation (room temperature, agitation, covered), the reaction was stopped with 50 μL 3M sulfuric acid. Plates were read at 450 nm on a Molecular Devices Versamax plate reader.
Inhibitor effect was expressed as a percentage of DMSO-treated control signal, and inhibition curves were calculated using a 4-parameter equation: y=A+((B−A)/(1+((C/x)^D))), where C is half-maximal activity or EC50.

T1 sequence (P27958 1027-1657, one chain of several): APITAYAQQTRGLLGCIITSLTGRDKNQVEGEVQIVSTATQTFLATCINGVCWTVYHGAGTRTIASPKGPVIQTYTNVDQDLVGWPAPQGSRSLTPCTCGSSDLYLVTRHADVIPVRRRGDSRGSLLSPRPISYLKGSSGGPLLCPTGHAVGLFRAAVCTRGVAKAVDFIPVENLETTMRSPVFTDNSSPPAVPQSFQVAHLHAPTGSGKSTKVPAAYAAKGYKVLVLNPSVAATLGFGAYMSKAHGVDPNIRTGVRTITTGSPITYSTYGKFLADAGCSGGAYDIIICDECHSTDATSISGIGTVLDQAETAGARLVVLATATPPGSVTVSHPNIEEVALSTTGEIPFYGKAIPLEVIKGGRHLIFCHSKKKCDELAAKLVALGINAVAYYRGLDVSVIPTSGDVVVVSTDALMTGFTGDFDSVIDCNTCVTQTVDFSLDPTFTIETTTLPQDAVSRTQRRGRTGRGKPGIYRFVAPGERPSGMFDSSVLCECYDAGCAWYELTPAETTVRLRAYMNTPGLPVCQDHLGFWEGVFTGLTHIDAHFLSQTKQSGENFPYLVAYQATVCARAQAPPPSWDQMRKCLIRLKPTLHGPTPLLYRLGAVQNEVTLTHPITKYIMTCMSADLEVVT

| Structure (SMILES) | IC50 [1] [nM] | EC50 [2] [nM] |
| --- | --- | --- |
| C=C[C@@H]1C[C@]1(NC(=O)[C@@H]1C[C@@H](OC(=O)N2Cc3cccc(Cl)c3C2)CN1C(=O)[C@@H](Nc1ccc(F)cc1)C(C)C)C(=O)NS(=O)(=O)C1CC1 [Compound 34, [(3R,5S)-5-((1R,2S)-1-(cyclopropylsulfonylcarbamoyl)-2-vinylcyclopropylcarbamoyl)-1-((S)-2-(4-fluorophenylamino)-3-methylbutanoyl)pyrrolidin-3-yl]4-chloroisoindoline-2-carboxylate] | < 100 | < 100 |
| C=CCCCCC[C@H](Nc1ccc(F)cc1)C(=O)N1C[C@H](OC(=O)N2Cc3cccc(F)c3C2)C[C@H]1C(=O)N[C@]1(C(=O)NS(=O)(=O)C2CC2)C[C@H]1C=C [Compound 35, [(3R,5S)-5-((1R,2S)-1-(cyclopropylsulfonylcarbamoyl)-2-vinylcyclopropylcarbamoyl)-1-((S)-2-(4-fluorophenylamino)non-8-enoyl)pyrrolidin-3-yl]4-floroisoindoline-2-carboxylate] | < 100 | 1000 to 10000 |
| C=C[C@@H]1C[C@]1(NC(=O)[C@@H]1C[C@@H](OC(=O)N2Cc3cccc(F)c3C2)CN1C(=O)[C@@H](Nc1ccc(Br)cc1)C(C)C)C(=O)NS(=O)(=O)C1CC1 [Compound 36, [(3R,5S)-5-((1R,2S)-1-(cyclopropylsulfonylcarbamoyl)-2-vinylcyclopropylcarbamoyl)-1-((S)-2-(4-bromophenylamino)-3-methylbutanoyl)pyrrolidin-3-yl]4-fluoroisoindoline-2-carboxylate] | < 100 | 100 to 1000 |
| C=C[C@@H]1C[C@]1(NC(=O)[C@@H]1C[C@@H](OC(=O)N2Cc3cccc(F)c3C2)CN1C(=O)[C@@H](Nc1ccc(F)cc1)C(C)(C)C)C(=O)NS(=O)(=O)C1CC1 [Compound 37, [(3R,5S)-5-((1R,2S)-1-(cyclopropylsulfonylcarbamoyl)-2-vinylcyclopropylcarbamoyl)-1-((S)-2-(4-fluorophenylamino)-3,3-methylbutanoyl)pyrrolidin-3-yl]4-fluoroisoindoline-2-carboxylate] | < 100 | < 100 |
| C=C[C@@H]1C[C@]1(NC(=O)[C@@H]1C[C@@H](OC(=O)N2Cc3cccc(F)c3C2)CN1C(=O)[C@@H](Nc1ccc(C(C)(C)C)cc1)C(C)C)C(=O)NS(=O)(=O)C1CC1 [Compound 38, [(3R,5S)-1-((S)-2-(4-tert-butylphenylamino)-3-methylbutanoyl)-5-((1R,2S)-1-(cyclopropylsulfonylcarbamoyl)-2-vinylcyclopropylcarbamoyl)pyrrolidin-3-yl]4-fluoroisoindoline-2-carboxylate] | < 100 | 100 to 1000 |
| C=C[C@@H]1C[C@]1(NC(=O)[C@@H]1C[C@@H](OC(=O)N2Cc3cccc(F)c3C2)CN1C(=O)[C@@H](Nc1ccc(F)nc1)C(C)C)C(=O)NS(=O)(=O)C1CC1 [Compound 39, [(3R,5S)-5-((1R,2S)-1-(cyclopropylsulfonylcarbamoyl)-2-vinylcyclopropylcarbamoyl)-1-((S)-2-(6-fluoropyridin-3-ylamino)-3-methylbutanoyl)pyrrolidin-3-yl]4-fluoroisoindoline-2-carboxylate] | < 100 | 100 to 1000 |
| C=C[C@@H]1C[C@]1(NC(=O)[C@@H]1C[C@@H](OC(=O)N2Cc3cccc(F)c3C2)CN1C(=O)[C@@H](Nc1cccc(C(C)(C)C)c1)C(C)C)C(=O)NS(=O)(=O)C1CC1 [Compound 40, [(3R,5S)-1-((S)-2-(3-tert-butylphenylamino)-3-methylbutanoyl)-5-((1R,2S)-1-(cyclopropylsulfonylcarbamoyl)-2-vinylcyclopropylcarbamoyl)pyrrolidin-3-yl]4-fluoroisoindoline-2-carboxylate] | < 100 | < 100 |

Reference: patent US7932277B2, “Peptide inhibitors of hepatitis C virus replication” (InterMune, Inc., priority 2007, dated 2011)
